Key:
barnyard grass [1] = assay: Test Example 5: herbicidal effect by foliage application, plastic box (Table 20, symbol H); type: in vivo, barnyard grass (Echinochloa crus-galli)
In short: (§1)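 Plants sown in sterilized diluvial soil and grown 14 days in a greenhouse at 25° C to 30° C, then sprayed on the foliage with the compound's emulsion diluted in water to a predetermined herbicide amount. Injury to weeds and crops scored three weeks after application on a visual rating scale.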

persian speedwell = assay: Test Example 5: herbicidal effect by foliage application, plastic box (Table 20, symbol R); type: in vivo, Persian speedwell (Veronica persica)
In short: as §1

green foxtail = assay: Test Example 5: herbicidal effect by foliage application, plastic box (Table 20, symbol G); type: in vivo, green foxtail (Setaria viridis)
In short: as §1

windgrass = assay: Test Example 5: herbicidal effect by foliage application, plastic box (Table 20, symbol L); type: in vivo, windgrass (Apera spica-venti)
In short: as §1

Italian ryegrass = assay: Test Example 5: herbicidal effect by foliage application, plastic box (Table 20, symbol K); type: in vivo, Italian ryegrass (Lolium multiflorum)
In short: as §1

velvetleaf = assay: Test Example 5: herbicidal effect by foliage application, plastic box (Table 20, symbol M); type: in vivo, velvetleaf (Abutilon theophrasti)
In short: as §1

Chinese sprangletop = assay: Test Example 3: herbicidal effect by foliage application, Wagner pot (Table 18, symbol D); type: in vivo, chinese sprangletop (Leptochloa chinensis)
In short: (§2)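 Plants were sown in alluvial soil held under 0.1–0.5 cm standing water and grown 14 days in a greenhouse at 25–30 °C. An emulsifiable formulation, water-diluted to the set dose, was then sprayed onto the foliage, and effects were scored three weeks later using previously defined criteria.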

chickweed = assay: Test Example 5: herbicidal effect by foliage application, plastic box (Table 20, symbol P); type: in vivo, common chickweed (Stellaria media)
In short: as §1

blackgrass = assay: Test Example 5: herbicidal effect by foliage application, plastic box (Table 20, symbol J); type: in vivo, blackgrass (Alopecurus myosuroides)
In short: as §1

wild oat = assay: Test Example 5: herbicidal effect by foliage application, plastic box (Table 20, symbol I); type: in vivo, wild oat (Avena fatua)
In short: as §1

false cleavers = assay: Test Example 5: herbicidal effect by foliage application, plastic box (Table 20, symbol Q); type: in vivo, false cleavers (Galium spurium)
Source text: [Test Example 5] Herbicidal Effect Test by Foliage Application
Sterilized diluvial soil was placed in a plastic box having a length of 21 cm, a width of 13 cm, and a depth of 7 cm. The seeds of each of southern crabgrass, green foxtail, barnyard grass, wild oat, blackgrass, Italian ryegrass, windgrass, velvetleaf, redroot pigweed, lambsquarters, chickweed, false cleavers, persian speedwell, corn, soybean, rice, wheat, beet, and rapeseed were sowed in a spot-like manner and covered with the soil having a thickness of about 1.5 cm. Thereafter, the plants were grown in a greenhouse at 25° C. to 30° C. After 14-day growth of the plants, the emulsion agent of the compound of the present invention prepared according to Formulation Example 2 was diluted with water so as to achieve a predetermined herbicide amount, and the diluted emulsion agent was uniformly applied to a foliage part with a small-sized spray. Three weeks after the herbicide application, the effect of the herbicide on each plant was evaluated according to the criteria of Test Example 1.

lambsquarters = assay: Test Example 5: herbicidal effect by foliage application, plastic box (Table 20, symbol O); type: in vivo, lambsquarters (Chenopodium album)
In short: as §1

redroot pigweed = assay: Test Example 5: herbicidal effect by foliage application, plastic box (Table 20, symbol N); type: in vivo, redroot pigweed (Amaranthus retroflexus)
In short: as §1

southern crabgrass = assay: Test Example 5: herbicidal effect by foliage application, plastic box (Table 20, symbol F); type: in vivo, southern crabgrass (Digitaria ciliaris)
In short: as §1

rice flat sedge = assay: Test Example 3: herbicidal effect by foliage application, Wagner pot (Table 18, symbol E); type: in vivo, rice flat sedge (Cyperus iria)
In short: as §2

barnyard grass [2] = assay: Test Example 3: herbicidal effect by foliage application, Wagner pot (Table 18, symbol H); type: in vivo, barnyard grass (Echinochloa crus-galli)
In short: as §2

[3] = foliage application, AAH 197 g/ha, three weeks after application
[4] = foliage application, AAH 320 g/ha, three weeks after application
[5] = foliage application, 320 g/ha, evaluated three weeks after application
[6] = foliage application, 320 g/ha, three weeks after application
[7] = 320 g/ha, foliage application after 14-day growth, evaluated three weeks after application

Cc1nn(C)c(=O)c(-c2c(-c3cc4c(cc3Cl)OCCO4)sc3ccccc23)c1O [1-095]
H: barnyard grass, herbicidal effect (barnyard grass [1]; [3]): 0 (Herbicidal rate of 5% or less (almost no effect)) | R: persian speedwell, herbicidal effect (persian speedwell; [3]): 4 (Herbicidal rate of 70% or more and less than 90%) | G: green foxtail, herbicidal effect (green foxtail; [3]): 0 (Herbicidal rate of 5% or less (almost no effect)) | L: windgrass, herbicidal effect (windgrass; [3]): 0 (Herbicidal rate of 5% or less (almost no effect)) | K: Italian ryegrass, herbicidal effect (Italian ryegrass; [3]): 0 (Herbicidal rate of 5% or less (almost no effect)) | M: velvetleaf, herbicidal effect (velvetleaf; [3]): 0 (Herbicidal rate of 5% or less (almost no effect)) | herbicidal effect on D (Chinese sprangletop), rating 0-5 (Chinese sprangletop; 197 g/ha): 0 (Herbicidal rate of 5% or less (almost no effect)) | P: chickweed, herbicidal effect (chickweed; [3]): 3 (Herbicidal rate of 40% or more and less than 70%) | J: blackgrass, herbicidal effect (blackgrass; [3]): 0 (Herbicidal rate of 5% or less (almost no effect)) | I: wild oat, herbicidal effect (wild oat; [3]): 0 (Herbicidal rate of 5% or less (almost no effect)) | Q: false cleavers, herbicidal effect (false cleavers; [3]): 3 (Herbicidal rate of 40% or more and less than 70%) | O: lambsquarters, herbicidal effect (lambsquarters; [3]): 0 (Herbicidal rate of 5% or less (almost no effect)) | N: redroot pigweed, herbicidal effect (redroot pigweed; [3]): 0 (Herbicidal rate of 5% or less (almost no effect)) | F: southern crabgrass, herbicidal effect (southern crabgrass; [3]): 0 (Herbicidal rate of 5% or less (almost no effect)) | herbicidal effect on E (rice flat sedge), rating 0-5 (rice flat sedge; 197 g/ha): 1 (Herbicidal rate of 5% or more and less than 20%) | herbicidal effect on H (barnyard grass), rating 0-5 (barnyard grass [2]; 197 g/ha): 4 (Herbicidal rate of 70% or more and less than 90%)

Cc1nn(C)c(=O)c(-c2c(-c3ccc(Oc4ccccc4)cc3)sc3ccccc23)c1O [1-149]
H: barnyard grass, herbicidal effect (barnyard grass [1]; [4]): 3 (Herbicidal rate of 40% or more and less than 70%) | R: persian speedwell, herbicidal effect (persian speedwell; [4]): 5 (Herbicidal rate of 90% or more (almost completely withered)) | G: green foxtail, herbicidal effect (green foxtail; [4]): 4 (Herbicidal rate of 70% or more and less than 90%) | L: windgrass, herbicidal effect (windgrass; [4]): 0 (Herbicidal rate of 5% or less (almost no effect)) | K: Italian ryegrass, herbicidal effect (Italian ryegrass; [4]): 0 (Herbicidal rate of 5% or less (almost no effect)) | M: velvetleaf, herbicidal effect (velvetleaf; [4]): 2 (Herbicidal rate of 20% or more and less than 40%) | herbicidal effect on D (Chinese sprangletop), rating 0-5 (Chinese sprangletop; 320 g/ha): 3 (Herbicidal rate of 40% or more and less than 70%) | P: chickweed, herbicidal effect (chickweed; [4]): 3 (Herbicidal rate of 40% or more and less than 70%) | J: blackgrass, herbicidal effect (blackgrass; [4]): 0 (Herbicidal rate of 5% or less (almost no effect)) | I: wild oat, herbicidal effect (wild oat; [4]): 0 (Herbicidal rate of 5% or less (almost no effect)) | Q: false cleavers, herbicidal effect (false cleavers; [4]): 5 (Herbicidal rate of 90% or more (almost completely withered)) | O: lambsquarters, herbicidal effect (lambsquarters; [4]): 4 (Herbicidal rate of 70% or more and less than 90%) | N: redroot pigweed, herbicidal effect (redroot pigweed; [4]): 5 (Herbicidal rate of 90% or more (almost completely withered)) | F: southern crabgrass, herbicidal effect (southern crabgrass; [4]): 3 (Herbicidal rate of 40% or more and less than 70%) | herbicidal effect on E (rice flat sedge), rating 0-5 (rice flat sedge; 320 g/ha): 5 (Herbicidal rate of 90% or more (almost completely withered)) | herbicidal effect on H (barnyard grass), rating 0-5 (barnyard grass [2]; 320 g/ha): 3 (Herbicidal rate of 40% or more and less than 70%)

COc1cc(F)ccc1-c1sc2ccc(-c3ccc(OC(C)C)cc3)cc2c1-c1c(O)c(C)nn(C)c1=O [2-167]
herbicidal effect on H: barnyard grass (criteria 0-5) (barnyard grass [1]; [5]): 0 (Herbicidal rate of 5% or less (almost no effect)) | herbicidal effect on R: persian speedwell (criteria 0-5) (persian speedwell; [5]): 0 (Herbicidal rate of 5% or less (almost no effect)) | herbicidal effect on G: green foxtail (criteria 0-5) (green foxtail; [5]): 0 (Herbicidal rate of 5% or less (almost no effect)) | herbicidal effect on L: windgrass (criteria 0-5) (windgrass; [5]): 0 (Herbicidal rate of 5% or less (almost no effect)) | herbicidal effect on K: Italian ryegrass (criteria 0-5) (Italian ryegrass; [5]): 0 (Herbicidal rate of 5% or less (almost no effect)) | herbicidal effect on M: velvetleaf (criteria 0-5) (velvetleaf; [5]): 0 (Herbicidal rate of 5% or less (almost no effect)) | herbicidal effect on P: chickweed (criteria 0-5) (chickweed; [5]): 0 (Herbicidal rate of 5% or less (almost no effect)) | herbicidal effect on J: blackgrass (criteria 0-5) (blackgrass; [5]): 0 (Herbicidal rate of 5% or less (almost no effect)) | herbicidal effect on I: wild oat (criteria 0-5) (wild oat; [5]): 0 (Herbicidal rate of 5% or less (almost no effect)) | herbicidal effect on Q: false cleavers (criteria 0-5) (false cleavers; [5]): 0 (Herbicidal rate of 5% or less (almost no effect)) | herbicidal effect on O: lambsquarters (criteria 0-5) (lambsquarters; [5]): 0 (Herbicidal rate of 5% or less (almost no effect)) | herbicidal effect on N: redroot pigweed (criteria 0-5) (redroot pigweed; [5]): 3 (Herbicidal rate of 40% or more and less than 70%) | herbicidal effect on F: southern crabgrass (criteria 0-5) (southern crabgrass; [5]): 0 (Herbicidal rate of 5% or less (almost no effect))

CCCC(=O)Oc1c(C)nn(C)c(=O)c1-c1c(-c2ccc(OC)cc2)sc2cc(C)ccc12 [3-052]
H: barnyard grass, herbicidal effect grade (barnyard grass [1]; [6]): 0 (Herbicidal rate of 5% or less (almost no effect)) | R: persian speedwell, herbicidal effect grade (persian speedwell; [6]): 5 (Herbicidal rate of 90% or more (almost completely withered)) | G: green foxtail, herbicidal effect grade (green foxtail; [6]): 3 (Herbicidal rate of 40% or more and less than 70%) | L: windgrass, herbicidal effect grade (windgrass; [6]): 0 (Herbicidal rate of 5% or less (almost no effect)) | K: Italian ryegrass, herbicidal effect grade (Italian ryegrass; [6]): 0 (Herbicidal rate of 5% or less (almost no effect)) | M: velvetleaf, herbicidal effect grade (velvetleaf; [6]): 3 (Herbicidal rate of 40% or more and less than 70%) | P: chickweed, herbicidal effect grade (chickweed; [6]): 5 (Herbicidal rate of 90% or more (almost completely withered)) | J: blackgrass, herbicidal effect grade (blackgrass; [6]): 0 (Herbicidal rate of 5% or less (almost no effect)) | I: wild oat, herbicidal effect grade (wild oat; [6]): 0 (Herbicidal rate of 5% or less (almost no effect)) | Q: false cleavers, herbicidal effect grade (false cleavers; [6]): 2 (Herbicidal rate of 20% or more and less than 40%) | O: lambsquarters, herbicidal effect grade (lambsquarters; [6]): 0 (Herbicidal rate of 5% or less (almost no effect)) | N: redroot pigweed, herbicidal effect grade (redroot pigweed; [6]): 0 (Herbicidal rate of 5% or less (almost no effect)) | F: southern crabgrass, herbicidal effect grade (southern crabgrass; [6]): 0 (Herbicidal rate of 5% or less (almost no effect))

COc1cccc(-c2sc3c(Cl)cccc3c2-c2c(O)c(C)nn(C)c2=O)c1 [4-064]
herbicidal effect on H: barnyard grass (evaluation grade 0-5) (barnyard grass [1]; [7]): 1 (Herbicidal rate of 5% or more and less than 20%) | herbicidal effect on R: persian speedwell (evaluation grade 0-5) (persian speedwell; [7]): 5 (Herbicidal rate of 90% or more (almost completely withered)) | herbicidal effect on G: green foxtail (evaluation grade 0-5) (green foxtail; [7]): 3 (Herbicidal rate of 40% or more and less than 70%) | herbicidal effect on L: windgrass (evaluation grade 0-5) (windgrass; [7]): 5 (Herbicidal rate of 90% or more (almost completely withered)) | herbicidal effect on K: Italian ryegrass (evaluation grade 0-5) (Italian ryegrass; [7]): 3 (Herbicidal rate of 40% or more and less than 70%) | herbicidal effect on M: velvetleaf (evaluation grade 0-5) (velvetleaf; [7]): 3 (Herbicidal rate of 40% or more and less than 70%) | herbicidal effect on Chinese sprangletop (D) (Chinese sprangletop; 320 g/ha): 3 (Herbicidal rate of 40% or more and less than 70%) | herbicidal effect on P: chickweed (evaluation grade 0-5) (chickweed; [7]): 5 (Herbicidal rate of 90% or more (almost completely withered)) | herbicidal effect on J: blackgrass (evaluation grade 0-5) (blackgrass; [7]): 0 (Herbicidal rate of 5% or less (almost no effect)) | herbicidal effect on I: wild oat (evaluation grade 0-5) (wild oat; [7]): 0 (Herbicidal rate of 5% or less (almost no effect)) | herbicidal effect on Q: false cleavers (evaluation grade 0-5) (false cleavers; [7]): 1 (Herbicidal rate of 5% or more and less than 20%) | herbicidal effect on O: lambsquarters (evaluation grade 0-5) (lambsquarters; [7]): 3 (Herbicidal rate of 40% or more and less than 70%) | herbicidal effect on N: redroot pigweed (evaluation grade 0-5) (redroot pigweed; [7]): 5 (Herbicidal rate of 90% or more (almost completely withered)) | herbicidal effect on F: southern crabgrass (evaluation grade 0-5) (southern crabgrass; [7]): 1 (Herbicidal rate of 5% or more and less than 20%) | herbicidal effect on rice flat sedge (E) (rice flat sedge; 320 g/ha): 4 (Herbicidal rate of 70% or more and less than 90%) | herbicidal effect on barnyard grass (H) (barnyard grass [2]; 320 g/ha): 4 (Herbicidal rate of 70% or more and less than 90%)
